Results on one compound are retold here after PMC6302548, “Dual Inhibition of the Lactate Transporters MCT1 and MCT4 Is Synthetic Lethal with Metformin due to NAD+ Depletion in Cancer Cells” (Cell Reports, 2018).

In assay [1] the target is T1, MCT4 (monocarboxylate transporter 4) (Homo sapiens, UniProt O15427).
T1 construct: gene SLC16A3
T1 sequence (O15427 2-465): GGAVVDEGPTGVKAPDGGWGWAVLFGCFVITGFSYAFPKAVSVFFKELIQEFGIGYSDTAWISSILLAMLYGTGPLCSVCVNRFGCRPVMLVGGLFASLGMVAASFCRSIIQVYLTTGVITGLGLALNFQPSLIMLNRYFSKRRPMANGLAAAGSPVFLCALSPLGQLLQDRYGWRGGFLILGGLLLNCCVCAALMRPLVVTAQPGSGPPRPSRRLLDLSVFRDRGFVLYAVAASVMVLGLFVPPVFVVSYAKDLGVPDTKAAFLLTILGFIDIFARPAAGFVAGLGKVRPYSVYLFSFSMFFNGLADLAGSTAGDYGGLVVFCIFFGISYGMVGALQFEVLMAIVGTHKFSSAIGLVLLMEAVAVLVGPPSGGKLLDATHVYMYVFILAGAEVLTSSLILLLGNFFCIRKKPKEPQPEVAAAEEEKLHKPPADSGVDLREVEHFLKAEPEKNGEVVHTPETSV
T1 sequence (P35613 22-385 partner): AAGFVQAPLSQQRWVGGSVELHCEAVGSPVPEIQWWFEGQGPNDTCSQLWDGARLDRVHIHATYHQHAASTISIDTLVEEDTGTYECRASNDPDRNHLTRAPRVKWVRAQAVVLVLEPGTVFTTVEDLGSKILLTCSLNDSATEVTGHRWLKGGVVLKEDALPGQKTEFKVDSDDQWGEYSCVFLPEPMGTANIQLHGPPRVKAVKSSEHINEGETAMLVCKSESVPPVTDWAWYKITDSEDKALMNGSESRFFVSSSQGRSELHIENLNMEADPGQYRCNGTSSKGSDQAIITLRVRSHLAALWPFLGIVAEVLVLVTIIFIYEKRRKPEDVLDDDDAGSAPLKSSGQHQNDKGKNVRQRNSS
Nature of the assay: intracellular lactate accumulation and 3H-lactate efflux in HAP1 MCT1-KO cells; DARTS in HCT116 membrane extracts. In kind it is cell-based.

Assay [2] has as its target T2, MCT1 (monocarboxylate transporter 1) (Homo sapiens, UniProt P53985).
T2 construct: gene SLC16A1
T2 sequence (P53985 1-500): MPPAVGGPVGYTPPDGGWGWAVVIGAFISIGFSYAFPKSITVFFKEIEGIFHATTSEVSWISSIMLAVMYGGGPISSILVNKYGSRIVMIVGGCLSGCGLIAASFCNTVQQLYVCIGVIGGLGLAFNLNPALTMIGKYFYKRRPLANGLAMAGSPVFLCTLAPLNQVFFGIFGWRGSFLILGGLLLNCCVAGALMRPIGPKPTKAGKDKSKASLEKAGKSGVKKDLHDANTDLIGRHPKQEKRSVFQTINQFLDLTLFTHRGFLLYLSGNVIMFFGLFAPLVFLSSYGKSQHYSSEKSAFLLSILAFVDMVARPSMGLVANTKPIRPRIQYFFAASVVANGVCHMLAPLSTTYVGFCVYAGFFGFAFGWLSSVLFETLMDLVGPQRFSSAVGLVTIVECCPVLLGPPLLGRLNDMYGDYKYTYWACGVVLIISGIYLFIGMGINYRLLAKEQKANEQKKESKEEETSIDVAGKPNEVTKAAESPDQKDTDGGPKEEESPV
T2 sequence (P35613 22-385 partner): T1 sequence (P35613 22-385 partner)
Nature of the assay: intracellular lactate accumulation and 3H-lactate efflux in HAP1 MCT4-KO cells; DARTS in HCT116 membrane extracts.

Take `CCOC(=O)Oc1c(OC)cc(C(=O)O[C@@H]2C[C@@H]3CN4CCc5c([nH]c6cc(OC)ccc56)[C@H]4C[C@@H]3[C@H](C(=O)OC)[C@H]2OC)cc1OC` [Syrosingopine]: the IC50 in assay [1] was about 40 nM; in assay [2], about 2500 nM.

By IC50 is commonly meant the point on the concentration scale where inhibition reaches its midpoint.
